Reference: US20050288307A1, “Anti-viral compounds” (priority 2002, published 2005)
Where two headings read alike, the source gives them in different places.

How the values were obtained:
HIV-1WeJo/PBMC = assay: Anti-HIV efficacy in fresh human PBMCs, strain WeJo; type: cell-based
Description: (§1) Fresh PBMCs, seronegative for HIV and HBV, were isolated from screened donors (Interstate Blood Bank, Inc. Memphis, Tenn.). Cells were pelleted/washed 2-3 times by low speed centrifugation and re-suspension in PBS to remove contaminating platelets. […] Banded PBMCs were gently aspirated from the resulting interface and subsequently washed with PBS by low speed centrifugation. […] The cells were allowed to incubate at 37° C. […] IL-2 is included in the culture medium to maintain the cell division initiated by the PHA mitogenic stimulation. PBMCs were maintained in this with bi-weekly medium changes until used in the assay protocol. Cells were kept in culture for a maximum of two weeks before being deemed too old for use in assays and discarded. Monocytes were depleted from the culture as the result of adherence to the tissue culture flask.
(§2) Tritiated thymidine triphosphate (^3H-TTP, 80 Ci/mmol, NEN) was received in 1:1 dH2O:Ethanol at 1 mCi/mL. Poly rA:oligo dT template:primer (Pharmacia) was prepared as a stock solution, followed by aliquoting and storage at −20° C. The RT reaction buffer was prepared fresh on a daily basis. The final reaction mixture was prepared by combining ^3H-TTP, dH2O, poly rA:oligo dT stock and reaction buffer. This reaction mixture was placed in a round bottom microtiter plate and supernatant containing virus was added and mixed. The plate was incubated at 37° C. for 60 minutes. Following incubation, the reaction volume was spotted onto DE81 filter-mats (Wallac), in a sodium phosphate buffer or 2×SSC (Life Technologies). Next they were washed in distilled water, in 70% ethanol, and then dried. Incorporated radioactivity (counts per minute, CPM) was quantified using standard liquid scintillation techniques.

[1] = Compound cytotoxicity in PBMC assay plates (MTS cell viability); details: human, TC50 (concentration decreasing cell viability by 50%)
HIV-1RoJo/PBMC = assay: Anti-HIV efficacy in fresh human PBMCs, strain RoJo; type: cell-based
Description: as §1, §2

HIV-1 = assay: Anti-viral cell-based assays; details: result in words
CaMKII = type: biochemical; details: Table 2
[2] = Human immunodeficiency virus 1, PBMC, read-out: IC50 (concentration inhibiting virus replication by 50%)
[3] = Human immunodeficiency virus 1, PBMC, read-out: IC90 (concentration inhibiting virus replication by 90%)

SMILES | IC50 (HIV-1WeJo/PBMC; [2]) [nM] | IC90 (HIV-1WeJo/PBMC; [3]) [nM] | CC50 at 7 days ([1]; HIV-1RoJo/PBMC) [nM] | CC50 at 7 days ([1]; HIV-1WeJo/PBMC) [nM] | IC50 (HIV-1RoJo/PBMC; [2]) [nM] | IC90 (HIV-1RoJo/PBMC; [3]) [nM] | anti-viral effectiveness as demonstrated by cell-based assays (HIV-1) | IC50 (CaMKII) [nM] | TI (therapeutic index: TC50/IC50) (HIV-1WeJo/PBMC; HIV-1WeJo/PBMC) | IC50 (HIV-1WeJo/PBMC; Human immunodeficiency virus 1, read-out: IC50 (concentration inhibiting virus replication by 50%), HIV-1WeJo/PBMC) [nM] | IC90 (HIV-1WeJo/PBMC; Human immunodeficiency virus 1, read-out: IC90 (concentration inhibiting virus replication by 90%), HIV-1WeJo/PBMC) [nM] | melting point [°C] | TI (therapeutic index: TC50/IC50) (HIV-1RoJo/PBMC; HIV-1RoJo/PBMC) | IC50 (HIV-1RoJo/PBMC; Human immunodeficiency virus 1, read-out: IC50 (concentration inhibiting virus replication by 50%), HIV-1RoJo/PBMC) [nM] | IC90 (HIV-1RoJo/PBMC; Human immunodeficiency virus 1, read-out: IC90 (concentration inhibiting virus replication by 90%), HIV-1RoJo/PBMC) [nM]
Cc1nc(N)sc1-c1ccnc(Nc2cccc([N+](=O)[O-])c2)n1 [Compound 105, [4-(2-Amino-4-methyl-thiazol-5-yl)-pyrimidin-2-yl]-(3-nitro-phenyl)-amine] | 5 | 14 | 1600 | 200 | 67 | 350 | particularly effective anti-viral agents | > 100000 |  |  |  |  |  |  | 
Cc1nc(C)c(-c2ccnc(Nc3ccc(I)cc3)n2)s1 [Compound 21, [4-(2,4-Dimethyl-thiazol-5-yl)-pyrimidin-2-yl]-(4-iodo-phenyl)-amine] |  |  | 31000 | 64000 |  |  | particularly effective anti-viral agents |  | 2190 | 29 | 48 | 171 to 173 | 495 | 62 | 100
